US11407723B2, “Selective histone deacetylase inhibitors for the treatment of human disease” (Shuttle Pharmaceuticals, Inc., priority 2018, dated 2022)

Key:
Format in all cases: biochemical
[1] = molecular target: HDAC1 protein (Homo sapiens, UniProt Q13547); assay: in vitro HDAC enzyme inhibition assay, HDAC1 (selectivity of HDAC6 over HDAC1); conditions: HDAC6 vs HDAC1
Description: (§1) The compounds were tested against Pan HDAC, HDAC1, HDAC3, and HDAC6 proteins in vitro.

[2] = molecular target: HDAC3 protein (Homo sapiens, UniProt O15379); assay: in vitro HDAC enzyme inhibition assay, HDAC3 (selectivity of HDAC6 over HDAC3); conditions: HDAC6 vs HDAC3
Description: as §1

[3] = molecular target: T1, HDAC6 protein (Homo sapiens, UniProt Q9UBN7); assay: in vitro HDAC enzyme inhibition assay, HDAC6; conditions: for inhibitory activity against HDAC6 protein: FIGS. 1 and 2A-2C
T1 sequence (Q9UBN7 1-1215): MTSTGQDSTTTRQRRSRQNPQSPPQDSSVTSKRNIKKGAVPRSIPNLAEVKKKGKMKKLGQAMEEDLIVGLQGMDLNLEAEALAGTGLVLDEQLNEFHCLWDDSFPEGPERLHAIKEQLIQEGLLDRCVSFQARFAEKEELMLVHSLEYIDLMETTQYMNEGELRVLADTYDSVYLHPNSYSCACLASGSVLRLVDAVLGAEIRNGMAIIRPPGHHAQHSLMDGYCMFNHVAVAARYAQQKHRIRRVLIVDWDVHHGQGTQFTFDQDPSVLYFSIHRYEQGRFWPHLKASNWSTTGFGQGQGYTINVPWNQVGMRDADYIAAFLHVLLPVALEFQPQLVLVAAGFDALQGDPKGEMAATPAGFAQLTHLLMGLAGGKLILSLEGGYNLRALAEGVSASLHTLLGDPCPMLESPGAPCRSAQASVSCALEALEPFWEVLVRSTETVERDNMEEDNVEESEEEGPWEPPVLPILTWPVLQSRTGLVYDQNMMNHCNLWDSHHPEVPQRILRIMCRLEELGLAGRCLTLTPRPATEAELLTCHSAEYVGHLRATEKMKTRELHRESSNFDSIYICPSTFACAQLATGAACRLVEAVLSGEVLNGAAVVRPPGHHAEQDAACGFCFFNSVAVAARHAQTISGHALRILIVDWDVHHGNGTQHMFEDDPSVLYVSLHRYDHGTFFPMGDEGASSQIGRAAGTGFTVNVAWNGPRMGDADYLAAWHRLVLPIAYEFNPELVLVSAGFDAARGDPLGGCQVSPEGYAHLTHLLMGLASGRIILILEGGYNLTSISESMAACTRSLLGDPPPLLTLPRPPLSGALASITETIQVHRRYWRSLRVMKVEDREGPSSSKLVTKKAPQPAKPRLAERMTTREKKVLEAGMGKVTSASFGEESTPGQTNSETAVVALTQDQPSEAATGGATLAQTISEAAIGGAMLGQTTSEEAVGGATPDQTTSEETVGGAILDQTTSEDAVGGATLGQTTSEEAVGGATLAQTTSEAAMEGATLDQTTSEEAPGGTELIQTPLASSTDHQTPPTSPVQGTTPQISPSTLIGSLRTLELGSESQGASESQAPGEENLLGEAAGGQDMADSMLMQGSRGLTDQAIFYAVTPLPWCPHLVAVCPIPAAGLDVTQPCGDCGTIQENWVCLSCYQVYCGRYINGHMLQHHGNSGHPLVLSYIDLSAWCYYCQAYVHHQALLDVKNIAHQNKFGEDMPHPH
Description: as §1

HDAC1 protein, sequence (Q13547 whole entry): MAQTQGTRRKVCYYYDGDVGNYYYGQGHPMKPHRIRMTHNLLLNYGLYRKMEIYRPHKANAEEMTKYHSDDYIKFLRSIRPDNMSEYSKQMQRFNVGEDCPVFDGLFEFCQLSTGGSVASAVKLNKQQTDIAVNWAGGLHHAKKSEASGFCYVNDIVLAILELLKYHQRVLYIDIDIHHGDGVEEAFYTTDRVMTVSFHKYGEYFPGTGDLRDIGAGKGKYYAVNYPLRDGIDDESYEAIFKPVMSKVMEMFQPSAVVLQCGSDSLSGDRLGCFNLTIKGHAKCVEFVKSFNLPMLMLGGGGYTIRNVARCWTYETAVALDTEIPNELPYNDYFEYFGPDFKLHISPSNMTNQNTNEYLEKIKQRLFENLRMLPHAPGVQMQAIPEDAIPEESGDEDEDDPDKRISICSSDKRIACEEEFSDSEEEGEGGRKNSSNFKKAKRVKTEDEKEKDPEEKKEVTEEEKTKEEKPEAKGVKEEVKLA
HDAC3 protein, sequence (O15379 whole entry): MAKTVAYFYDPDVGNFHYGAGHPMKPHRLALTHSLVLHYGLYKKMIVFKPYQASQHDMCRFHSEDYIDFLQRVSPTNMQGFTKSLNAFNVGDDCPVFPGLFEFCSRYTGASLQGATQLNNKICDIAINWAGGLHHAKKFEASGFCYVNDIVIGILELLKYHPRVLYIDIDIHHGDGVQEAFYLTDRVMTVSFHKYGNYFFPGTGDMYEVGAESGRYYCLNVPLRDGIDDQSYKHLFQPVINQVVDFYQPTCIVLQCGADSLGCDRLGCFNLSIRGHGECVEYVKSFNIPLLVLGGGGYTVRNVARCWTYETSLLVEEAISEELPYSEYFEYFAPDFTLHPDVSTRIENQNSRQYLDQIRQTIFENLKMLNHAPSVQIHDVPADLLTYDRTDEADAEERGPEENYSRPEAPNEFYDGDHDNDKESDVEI
HDAC3 protein, sequence (Q9Y618 395-489 partner limits assumed): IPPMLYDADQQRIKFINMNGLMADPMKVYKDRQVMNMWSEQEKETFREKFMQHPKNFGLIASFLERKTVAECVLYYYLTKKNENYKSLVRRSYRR

| times more selective for HDAC6 as compared to HDAC1 [1] | times more selective for HDAC6 as compared to HDAC3 [2] | inhibitory activity against HDAC6 protein [3] | selectivity for HDAC6 as compared to Pan-HDACs, HDAC1 and HDAC3 (in words) [3] | SMILES |
| --- | --- | --- | --- | --- |
| about 4 times | about 12 times | inhibitors of HDAC6 | selective inhibitors of HDAC6 | Cc1nnc(NS(=O)(=O)c2ccc(NC(=O)CCCCCCC(=O)NO)cc2)s1 [SP-2-213, N^1-hydroxy-N^8-(4-(N-(5-methyl-1,3,4-thiadiazol-2-yl)sulfamoyl)phenyl) octanediamide] |
| about 65 times | about 22 times | inhibitors of HDAC6 | selective inhibitors of HDAC6 | Cc1cc(CNCCCCCC(=O)NO)ccc1OCc1cccc(-c2ccccc2)c1C [SP-2-225, N-hydroxy-6-((3-methyl-4-((2-methyl-[1,1′-biphenyl]-3-yl)methoxy)benzyl)amino)hexanamide] |
